Values of other authors, collected in patent US20050123607A1, “Pharmaceutical formulation of valaciclovir” (priority 2003, published 2005).

Key:
[1] = especially in its salt form
[2] = oral administration

CC(C)[C@H](N)C(=O)OCCOCn1cnc2c(=O)[nH]c(N)nc21 [valaciclovir]
solubility (in words) [1]: very soluble
absorption from the gastrointestinal tract / bioavailability (in words) [2]: much improved bioavailability
